# In PubChem BioAssay (NCI):
#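 Cells were grown in 96-well plates and exposed to each compound for 48 hours at five concentrations; endpoints were interpolated linearly between bracketing concentrations, or set to the highest concentration if not reached. TGI: total growth inhibition.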
# Experiments:
# Test in all cases: NCI anticancer screen, dose series, 48 h
# [1] = test system: T-47D breast
# [2] = test system: KM12 colon
# [3] = test system: SNB-75 CNS
# [4] = test system: RXF 393 renal
# [5] = test system: SW-620 colon
# [6] = test system: ACHN renal
# [7] = test system: MOLT-4 leukemia
# [8] = test system: A498 renal
# [9] = test system: CAKI-1 renal
# [10] = test system: NCI-H522 lung
# [11] = test system: HCT-15 colon
# [12] = test system: SF-539 CNS
# [13] = test system: RPMI-8226 leukemia
# [14] = test system: SN12C renal
# [15] = test system: HL-60(TB) leukemia
# [16] = test system: M14 melanoma
# [17] = test system: MALME-3M melanoma
# [18] = test system: HCC-2998 colon
# [19] = test system: LOX IMVI melanoma
# [20] = test system: NCI-H23 lung
# [21] = test system: K-562 leukemia
# [22] = test system: 786-0 renal
# [23] = test system: EKVX NSCLC
# [24] = test system: OVCAR-4 ovarian
# [25] = test system: OVCAR-5 ovarian
# [26] = test system: NCI-H226 lung
# [27] = test system: SK-MEL-28 melanoma
# [28] = test system: MDA-MB-231 breast
# [29] = test system: HS 578T breast
# [30] = test system: DU-145 prostate
# [31] = test system: A549 NSCLC
# [32] = test system: NCI/ADR-RES ovarian
# [33] = test system: MCF7 breast
# [34] = test system: IGROV1 ovarian
# [35] = test system: SR leukemia
# [36] = test system: MDA-MB-435
# [37] = test system: HCT-116 colon
# [38] = test system: MDA-N
# [39] = test system: UACC-257 melanoma
# [40] = test system: SK-MEL-5 melanoma
# [41] = test system: COLO 205 colon
# [42] = test system: HT29 colon
# [43] = test system: HOP-62 NSCLC
# [44] = test system: SF-295 CNS
# [45] = test system: SK-MEL-2 melanoma
# [46] = test system: SK-OV-3 ovarian
# [47] = test system: OVCAR-8 ovarian
# [48] = test system: PC-3 prostate
# [49] = test system: U251 CNS
# [50] = test system: UACC-62 melanoma
# [51] = test system: CCRF-CEM leukemia
# [52] = test system: UO-31 renal
# [53] = test system: SF-268 CNS
# [54] = test system: OVCAR-3 ovarian
# [55] = test system: NCI-H460 lung
# [56] = test system: TK-10 renal
# [57] = test system: SNB-19 CNS
# [58] = test system: HOP-92 NSCLC
# [59] = test system: BT-549 breast
structure (smiles),measurement,setting,value
CCOC(=O)C(/C=N\C(=S)Nc1c(CC)cccc1C(C)(C)C)=C(/O)c1ccccc1,TGI,[1],> 100 µM
same,TGI,[2],> 100 µM
same,TGI,[3],> 100 µM
same,TGI,[4],> 100 µM
same,TGI,[5],> 100 µM
same,TGI,[6],> 100 µM
same,TGI,[7],> 100 µM
same,TGI,[8],> 100 µM
same,TGI,[9],> 100 µM
same,TGI,[10],> 100 µM
same,TGI,[11],> 100 µM
same,TGI,[12],> 100 µM
same,TGI,[13],> 100 µM
same,TGI,[14],> 100 µM
same,TGI,[15],> 100 µM
same,TGI,[16],> 100 µM
same,TGI,[17],> 100 µM
same,TGI,[18],> 100 µM
same,TGI,[19],> 100 µM
same,TGI,[20],> 100 µM
same,TGI,[21],> 100 µM
same,TGI,[22],> 100 µM
same,TGI,[23],> 100 µM
same,TGI,[24],> 100 µM
same,TGI,[25],> 100 µM
same,TGI,[26],> 100 µM
same,TGI,[27],> 100 µM
same,TGI,[28],> 100 µM
same,TGI,[29],87.5 µM
same,TGI,[30],> 100 µM
same,TGI,[31],> 100 µM
same,TGI,[32],> 100 µM
same,TGI,[33],> 100 µM
same,TGI,[34],> 100 µM
same,TGI,[35],> 100 µM
same,TGI,[36],> 100 µM
same,TGI,[37],> 100 µM
same,TGI,[38],> 100 µM
same,TGI,[39],> 100 µM
same,TGI,[40],> 100 µM
same,TGI,[41],> 100 µM
same,TGI,[42],> 100 µM
same,TGI,[43],> 100 µM
same,TGI,[44],> 100 µM
same,TGI,[45],> 100 µM
same,TGI,[46],> 100 µM
same,TGI,[47],> 100 µM
same,TGI,[48],> 100 µM
same,TGI,[49],> 100 µM
same,TGI,[50],> 100 µM
same,TGI,[51],> 100 µM
same,TGI,[52],> 100 µM
same,TGI,[53],> 100 µM
CN(C)/C=C1\CCc2ccc([N+](=O)[O-])cc2C1=O,TGI,[1],89.6 µM
same,TGI,[2],> 100 µM
same,TGI,[3],> 100 µM
same,TGI,[4],> 100 µM
same,TGI,[5],97.1 µM
same,TGI,[6],> 100 µM
same,TGI,[7],51 µM
same,TGI,[8],> 100 µM
same,TGI,[9],> 100 µM
same,TGI,[10],> 100 µM
same,TGI,[11],> 100 µM
same,TGI,[13],62.2 µM
same,TGI,[14],40.4 µM
same,TGI,[15],66.6 µM
same,TGI,[16],> 100 µM
same,TGI,[17],> 100 µM
same,TGI,[18],> 100 µM
same,TGI,[19],42.6 µM
same,TGI,[20],> 100 µM
same,TGI,[21],56.8 µM
same,TGI,[22],> 100 µM
same,TGI,[23],> 100 µM
same,TGI,[24],34.2 µM
same,TGI,[25],> 100 µM
same,TGI,[54],41.2 µM
same,TGI,[26],> 100 µM
same,TGI,[27],> 100 µM
same,TGI,[28],43.8 µM
same,TGI,[29],> 100 µM
same,TGI,[55],> 100 µM
same,TGI,[30],> 100 µM
same,TGI,[31],> 100 µM
same,TGI,[32],> 100 µM
same,TGI,[33],48 µM
same,TGI,[34],> 100 µM
same,TGI,[35],74.2 µM
same,TGI,[36],34.8 µM
same,TGI,[37],36 µM
same,TGI,[38],38.1 µM
same,TGI,[39],38.2 µM
same,TGI,[40],> 100 µM
same,TGI,[41],43.5 µM
same,TGI,[42],53.7 µM
same,TGI,[43],> 100 µM
same,TGI,[44],> 100 µM
same,TGI,[56],> 100 µM
same,TGI,[45],> 100 µM
same,TGI,[46],> 100 µM
same,TGI,[47],> 100 µM
same,TGI,[48],> 100 µM
same,TGI,[49],> 100 µM
same,TGI,[57],> 100 µM
same,TGI,[50],76.4 µM
same,TGI,[51],52.4 µM
same,TGI,[52],> 100 µM
same,TGI,[53],> 100 µM
CC(C)(Cl)C(Br)CCC(C)(Br)C(Br)CBr (stereo not given),TGI,[1],46.4 µM
same,TGI,[2],36 µM
same,TGI,[4],38 µM
same,TGI,[5],31.4 µM
same,TGI,[6],31.9 µM
same,TGI,[7],53.4 µM
same,TGI,[8],34.8 µM
same,TGI,[10],26.5 µM
same,TGI,[11],42.6 µM
same,TGI,[12],29 µM
same,TGI,[13],40.1 µM
same,TGI,[14],35.8 µM
same,TGI,[15],36.5 µM
same,TGI,[16],33.7 µM
same,TGI,[17],31.8 µM
same,TGI,[18],25.8 µM
same,TGI,[58],48.6 µM
same,TGI,[20],38.6 µM
same,TGI,[21],> 100 µM
same,TGI,[22],31.2 µM
same,TGI,[23],70.3 µM
same,TGI,[24],37.5 µM
same,TGI,[25],31.2 µM
same,TGI,[54],29.9 µM
same,TGI,[26],39.3 µM
same,TGI,[27],33.6 µM
same,TGI,[28],25.9 µM
same,TGI,[59],42.8 µM
same,TGI,[29],46.5 µM
same,TGI,[55],31.1 µM
same,TGI,[30],39.2 µM
same,TGI,[31],92.2 µM
same,TGI,[32],31.6 µM
same,TGI,[34],39.9 µM
same,TGI,[36],35.3 µM
same,TGI,[37],29.5 µM
same,TGI,[38],43.1 µM
same,TGI,[39],37.5 µM
same,TGI,[40],28 µM
same,TGI,[41],31 µM
same,TGI,[42],29.2 µM
same,TGI,[43],32.5 µM
same,TGI,[44],32.8 µM
same,TGI,[56],62.2 µM
same,TGI,[45],30.3 µM
same,TGI,[46],> 100 µM
same,TGI,[47],29.7 µM
same,TGI,[48],64.7 µM
same,TGI,[49],30.1 µM
same,TGI,[57],54.6 µM
same,TGI,[50],48.3 µM
same,TGI,[51],28.7 µM
same,TGI,[52],36.1 µM
same,TGI,[53],32.6 µM
OC1c2ccccc2CCC1C(O)(C(F)(F)F)C(F)(F)F (stereo not given),TGI,[1],> 100 µM
same,TGI,[2],> 100 µM
same,TGI,[3],> 100 µM
same,TGI,[4],> 100 µM
same,TGI,[5],> 100 µM
same,TGI,[6],> 100 µM
same,TGI,[7],> 100 µM
same,TGI,[8],> 100 µM
same,TGI,[9],> 100 µM
same,TGI,[10],> 100 µM
same,TGI,[11],> 100 µM
same,TGI,[12],> 100 µM
same,TGI,[13],> 100 µM
same,TGI,[14],> 100 µM
same,TGI,[15],> 100 µM
same,TGI,[16],> 100 µM
same,TGI,[17],> 100 µM
same,TGI,[18],> 100 µM
same,TGI,[19],> 100 µM
same,TGI,[58],> 100 µM
same,TGI,[20],> 100 µM
same,TGI,[21],> 100 µM
same,TGI,[22],> 100 µM
same,TGI,[23],> 100 µM
same,TGI,[24],> 100 µM
same,TGI,[25],> 100 µM
same,TGI,[54],> 100 µM
same,TGI,[26],> 100 µM
same,TGI,[27],> 100 µM
same,TGI,[28],> 100 µM
same,TGI,[29],> 100 µM
same,TGI,[55],> 100 µM
same,TGI,[30],> 100 µM
same,TGI,[31],> 100 µM
same,TGI,[32],> 100 µM
same,TGI,[33],> 100 µM
same,TGI,[34],> 100 µM
same,TGI,[35],> 100 µM
same,TGI,[36],> 100 µM
same,TGI,[37],> 100 µM
same,TGI,[38],> 100 µM
same,TGI,[40],> 100 µM
same,TGI,[41],> 100 µM
same,TGI,[42],> 100 µM
same,TGI,[43],> 100 µM
same,TGI,[44],> 100 µM
same,TGI,[56],> 100 µM
same,TGI,[45],> 100 µM
same,TGI,[46],> 100 µM
same,TGI,[47],> 100 µM
same,TGI,[48],> 100 µM
same,TGI,[49],> 100 µM
same,TGI,[57],> 100 µM
same,TGI,[50],> 100 µM
same,TGI,[51],> 100 µM
same,TGI,[52],> 100 µM
same,TGI,[53],> 100 µM
CCOCCOC(=O)C1CCC(=O)N1CN(C(C)=O)c1cc(OC)ccc1OC (stereo not given),TGI,[1],> 100 µM
same,TGI,[2],> 100 µM
same,TGI,[3],> 100 µM
same,TGI,[4],> 100 µM
same,TGI,[5],> 100 µM
same,TGI,[6],> 100 µM
same,TGI,[7],> 100 µM
same,TGI,[8],> 100 µM
same,TGI,[9],> 100 µM
same,TGI,[10],> 100 µM
same,TGI,[11],> 100 µM
same,TGI,[12],> 100 µM
same,TGI,[13],> 100 µM
same,TGI,[14],> 100 µM
same,TGI,[16],> 100 µM
same,TGI,[17],> 100 µM
same,TGI,[19],> 100 µM
same,TGI,[58],> 100 µM
same,TGI,[20],> 100 µM
same,TGI,[21],> 100 µM
same,TGI,[22],> 100 µM
same,TGI,[23],> 100 µM
same,TGI,[24],> 100 µM
same,TGI,[25],> 100 µM
same,TGI,[54],> 100 µM
same,TGI,[26],> 100 µM
same,TGI,[27],> 100 µM
same,TGI,[28],> 100 µM
same,TGI,[29],> 100 µM
same,TGI,[55],> 100 µM
same,TGI,[30],> 100 µM
same,TGI,[31],> 100 µM
same,TGI,[32],> 100 µM
same,TGI,[33],> 100 µM
same,TGI,[34],> 100 µM
same,TGI,[35],> 100 µM
same,TGI,[36],> 100 µM
same,TGI,[37],> 100 µM
same,TGI,[38],> 100 µM
same,TGI,[39],> 100 µM
same,TGI,[40],> 100 µM
same,TGI,[41],> 100 µM
same,TGI,[42],> 100 µM
same,TGI,[43],> 100 µM
same,TGI,[44],> 100 µM
same,TGI,[56],> 100 µM
same,TGI,[45],> 100 µM
same,TGI,[46],> 100 µM
same,TGI,[47],> 100 µM
same,TGI,[48],> 100 µM
same,TGI,[49],> 100 µM
same,TGI,[57],> 100 µM
same,TGI,[50],> 100 µM
same,TGI,[52],> 100 µM
same,TGI,[53],> 100 µM
